Measured values from ChEMBL document CHEMBL1201862, “PubChem BioAssay data set” (2004).
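48-hour exposure; five concentrations; linearly interpolated endpoints. GI50 marks 50% less growth.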 The source made the active and inactive calls. No stated cut-off is given here; in the data, active = GI50 up to about 1.1 µM and inactive = higher.

Key:
Assay in all cases: NCI-60 cell line screen, 48 h
SF-295 = system: SF-295
K562 = system: K562
HOP-62 = system: HOP-62
786-0 = system: 786-0
UACC-62 = system: UACC-62
M14 = system: M14
A549 = system: A549
CCRF-CEM = system: CCRF-CEM
SR = system: SR
MDA-MB-231 = system: MDA-MB-231
Hs-578T = system: Hs-578T
HT-29 = system: HT-29
HOP-92 = system: HOP-92
SNB-75 = system: SNB-75
MDA-MB-435 = system: MDA-MB-435
RXF 393 = system: RXF 393
CAKI-1 = system: CAKI-1
NCI-H460 = system: NCI-H460
BT-549 = system: BT-549
HCC 2998 = system: HCC 2998

Measured: GI50

O=C1/C(=C/c2ccco2)NC(=S)N1CN1CCOCC1
inactive: SF-295 > 100 µM | K562 > 100 µM | HOP-62 > 100 µM | 786-0 > 100 µM | UACC-62 > 100 µM | M14 > 100 µM | A549 > 100 µM | CCRF-CEM > 100 µM | SR > 100 µM | MDA-MB-231 > 100 µM | Hs-578T > 100 µM | HT-29 > 100 µM | HOP-92 > 100 µM | SNB-75 > 100 µM | MDA-MB-435 > 100 µM

[N-]=[N+]=CC(=O)OCCCCl
inactive: RXF 393 > 100 µM | SF-295 > 100 µM | CAKI-1 > 100 µM | HOP-62 > 100 µM | NCI-H460 4.37 µM | 786-0 > 100 µM | UACC-62 > 100 µM | CCRF-CEM > 100 µM | SR 4.25 µM | MDA-MB-231 > 100 µM | BT-549 > 100 µM | HT-29 > 100 µM | HOP-92 > 100 µM | MDA-MB-435 > 100 µM | HCC 2998 > 100 µM

S=C1/C(=N/c2ccccc2)N(c2ccccc2)/C(=N\c2ccccn2)N1c1ccccc1
inactive: RXF 393 10 µM | SF-295 16.3 µM | K562 > 100 µM | CAKI-1 15.5 µM | HOP-62 16.3 µM | NCI-H460 13.6 µM | 786-0 14.5 µM | UACC-62 2.77 µM | A549 17.8 µM | CCRF-CEM > 100 µM | SR 7.83 µM | MDA-MB-231 16.6 µM | Hs-578T 14.9 µM | HT-29 11 µM | HOP-92 13 µM | SNB-75 14.7 µM | MDA-MB-435 15.2 µM | HCC 2998 14.1 µM

CC1C(c2ccc(Cl)cc2)c2cc3c(cc2OC1N1CCOCC1)OCO3 (stereo not drawn)
active: SR 0.931 µM
inactive: SF-295 31.8 µM | K562 > 100 µM | CAKI-1 31.8 µM | HOP-62 79.4 µM | NCI-H460 > 100 µM | 786-0 56.8 µM | UACC-62 74 µM | M14 85.3 µM | A549 75.7 µM | CCRF-CEM 92.9 µM | Hs-578T 23.9 µM | HT-29 49.5 µM | SNB-75 44.1 µM | MDA-MB-435 95.1 µM | HCC 2998 > 100 µM

CCOC(=O)CCC(NC(=O)c1ccc(/N=C/c2nc3ccccc3nc2-c2ccccc2)cc1)C(=O)OCC (stereo not drawn)
inactive: RXF 393 64.9 µM | SF-295 > 100 µM | K562 > 100 µM | CAKI-1 > 100 µM | HOP-62 > 100 µM | NCI-H460 > 100 µM | 786-0 > 100 µM | UACC-62 > 100 µM | M14 82 µM | A549 > 100 µM | CCRF-CEM > 100 µM | SR > 100 µM | HT-29 > 100 µM | HOP-92 > 100 µM | SNB-75 20 µM | HCC 2998 > 100 µM

COC1=CC(=O)NCCN1
inactive: RXF 393 > 100 µM | SF-295 > 100 µM | K562 > 100 µM | CAKI-1 > 100 µM | HOP-62 > 100 µM | NCI-H460 29.3 µM | 786-0 > 100 µM | UACC-62 > 100 µM | M14 > 100 µM | A549 > 100 µM | CCRF-CEM 51.4 µM | SR > 100 µM | HT-29 > 100 µM | HOP-92 > 100 µM | SNB-75 > 100 µM | HCC 2998 > 100 µM

COc1cc(/C=C2/C(=O)N(C(=O)OC(C)C)C(Cc3cc(OC)c(OC)c(C)c3OC)C(=O)N2Cc2ccccc2)c(OC)c(C)c1OC (stereo not drawn)
inactive: RXF 393 20.4 µM | SF-295 68.7 µM | K562 6.79 µM | CAKI-1 > 100 µM | HOP-62 > 100 µM | NCI-H460 3.51 µM | 786-0 > 100 µM | UACC-62 > 100 µM | M14 50.9 µM | A549 56.9 µM | CCRF-CEM 13.1 µM | SR 7.24 µM | HT-29 27.9 µM | HOP-92 4 µM | SNB-75 56 µM | HCC 2998 38.4 µM

CNC(=S)N/N=C1\C(=O)N(CN2CCOCC2)c2ccc([N+](=O)[O-])cc21
inactive: RXF 393 16.4 µM | SF-295 18.2 µM | K562 > 100 µM | CAKI-1 17.7 µM | HOP-62 14.1 µM | NCI-H460 23.4 µM | 786-0 15.3 µM | UACC-62 15.3 µM | M14 31.6 µM | A549 31.9 µM | CCRF-CEM 23.5 µM | SR 53.3 µM | MDA-MB-231 11.9 µM | Hs-578T 25 µM | HT-29 40.6 µM | HOP-92 21.3 µM | MDA-MB-435 60.3 µM | HCC 2998 14.9 µM

CC1(C)OC(=O)[C@@](C)([C@H](O)c2ccccc2)O1
inactive: RXF 393 > 100 µM | SF-295 > 100 µM | K562 67.9 µM | CAKI-1 46.3 µM | HOP-62 > 100 µM | NCI-H460 > 100 µM | 786-0 > 100 µM | UACC-62 78.2 µM | M14 > 100 µM | A549 83.2 µM | CCRF-CEM > 100 µM | SR 50.6 µM | HT-29 > 100 µM | HOP-92 28.6 µM | SNB-75 65 µM | HCC 2998 71 µM

Cc1c(C)c2ccc3oc4ccccc4c3c2oc1=O
inactive: RXF 393 > 100 µM | SF-295 67.3 µM | K562 > 100 µM | CAKI-1 > 100 µM | HOP-62 > 100 µM | NCI-H460 > 100 µM | 786-0 > 100 µM | UACC-62 > 100 µM | M14 > 100 µM | A549 > 100 µM | CCRF-CEM > 100 µM | SR > 100 µM | HT-29 > 100 µM | HOP-92 52.6 µM | SNB-75 57.8 µM | HCC 2998 > 100 µM

O=C1CCCc2ccc3c(c21)CC1(Cc2ccccc2C1)C3
inactive: RXF 393 33.3 µM | SF-295 24.2 µM | K562 10.8 µM | HOP-62 39.1 µM | 786-0 29.1 µM | UACC-62 26.1 µM | M14 34.6 µM | A549 34.7 µM | MDA-MB-231 27.5 µM | Hs-578T 25.9 µM | HT-29 17.5 µM | HOP-92 17 µM | SNB-75 1.26 µM | MDA-MB-435 27 µM | HCC 2998 41.5 µM

COC(=O)c1ncc2c(=O)[nH]c3ccccc3c2c1C(=O)OC
inactive: RXF 393 > 100 µM | SF-295 > 100 µM | K562 > 100 µM | CAKI-1 > 100 µM | HOP-62 > 100 µM | NCI-H460 22 µM | 786-0 > 100 µM | UACC-62 > 100 µM | M14 > 100 µM | A549 > 100 µM | CCRF-CEM > 100 µM | SR > 100 µM | HT-29 > 100 µM | HOP-92 > 100 µM | SNB-75 > 100 µM | HCC 2998 > 100 µM

N#Cc1nn(-c2ccc(Cl)cc2)c(=N)c2c(N)n3nc(-c4ccccc4)cc3nc12
active: SF-295 0.681 µM | K562 1 µM | CAKI-1 1 µM | HOP-62 0.485 µM | NCI-H460 1 µM | UACC-62 1 µM | M14 1 µM | A549 1 µM | CCRF-CEM 1 µM | SR < 0.01 µM | HT-29 1 µM | HOP-92 0.546 µM | SNB-75 1 µM | HCC 2998 < 0.01 µM
inactive: RXF 393 28.2 µM | 786-0 38.5 µM

O=S(=O)(F)Cc1ccccc1 [PHENYLMETHYLSULFONYLFLUORIDE]
inactive: SF-295 > 100 µM | K562 > 100 µM | CAKI-1 > 100 µM | HOP-62 > 100 µM | NCI-H460 > 100 µM | 786-0 > 100 µM | UACC-62 > 100 µM | M14 > 100 µM | A549 > 100 µM | CCRF-CEM > 100 µM | SR > 100 µM | MDA-MB-231 > 100 µM | BT-549 > 100 µM | HT-29 > 100 µM | HOP-92 > 100 µM | SNB-75 > 100 µM | MDA-MB-435 > 100 µM | HCC 2998 > 100 µM

CCC(=O)OC1CCn2c1nc1c2C(=O)C(C)=C(NC(C)=O)C1=O (stereo not drawn)
active: CCRF-CEM 0.736 µM
inactive: RXF 393 1.73 µM | SF-295 2.23 µM | K562 1.87 µM | CAKI-1 1.92 µM | HOP-62 11.7 µM | NCI-H460 3.22 µM | 786-0 3.48 µM | UACC-62 1.93 µM | M14 1.89 µM | A549 2.05 µM | SR 1.91 µM | HT-29 1.69 µM | HOP-92 1.69 µM | SNB-75 5.01 µM | HCC 2998 2.31 µM

CN(C(=O)Cc1cc(Cl)c(Cl)cc1NC(=O)CCCN)[C@H]1CCCC[C@@H]1N1CCCC1
inactive: RXF 393 16.1 µM | SF-295 58.2 µM | K562 > 100 µM | CAKI-1 > 100 µM | HOP-62 > 100 µM | 786-0 19.5 µM | UACC-62 19.8 µM | M14 19 µM | A549 29.5 µM | SR 34.8 µM | MDA-MB-231 28.3 µM | BT-549 71.9 µM | HT-29 20.5 µM | MDA-MB-435 16.4 µM | HCC 2998 16.6 µM

CCCCCCCCCCCCCCCCCCNC(=S)N/C=C1/C(=O)C=C(C)OC1=O
inactive: SF-295 23.8 µM | CAKI-1 23.4 µM | HOP-62 31.8 µM | NCI-H460 13.1 µM | 786-0 29.6 µM | UACC-62 30.2 µM | M14 18 µM | A549 25.9 µM | MDA-MB-231 33 µM | BT-549 19.1 µM | HT-29 20.8 µM | HOP-92 27.3 µM | SNB-75 14.3 µM | MDA-MB-435 23.7 µM | HCC 2998 9.53 µM
